As a reminder, the IC50 is the concentration at which inhibition is half-maximal.

Some results are limits rather than exact numbers.

The results in this text go back to patent US10954232B2, “Pyrazole derivative as ALK5 inhibitor and uses thereof” (HANMI PHARMACEUTICAL CO., LTD., priority 2016, dated 2021).

The target of the test is T1, ALK5 kinase (Homo sapiens, UniProt P36897).
T1 construct: GST; purchased Thermo Fisher Scientific Solutions
T1 sequence (P36897 34-503): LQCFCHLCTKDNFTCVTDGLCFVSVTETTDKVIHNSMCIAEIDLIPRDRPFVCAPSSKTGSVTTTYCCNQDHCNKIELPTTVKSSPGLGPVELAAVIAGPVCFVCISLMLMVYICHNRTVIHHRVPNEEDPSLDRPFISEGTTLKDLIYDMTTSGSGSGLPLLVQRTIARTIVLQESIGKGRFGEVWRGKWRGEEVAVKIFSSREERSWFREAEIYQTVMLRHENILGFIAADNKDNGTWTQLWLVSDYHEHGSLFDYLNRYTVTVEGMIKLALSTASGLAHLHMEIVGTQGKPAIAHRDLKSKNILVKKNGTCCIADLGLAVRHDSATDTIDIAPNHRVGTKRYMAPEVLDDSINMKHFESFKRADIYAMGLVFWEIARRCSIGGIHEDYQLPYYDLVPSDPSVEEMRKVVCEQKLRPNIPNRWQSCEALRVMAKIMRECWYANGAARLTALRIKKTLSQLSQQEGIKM
Kind of test: Activity inhibition test on ALK5 enzyme (LanthaScreen Eu binding kinase assay). The note with it: kinase tracer 178, 60 minutes at room temperature. The gist of the method:
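TR-FRET tracer-displacement format with final 5 nM ALK5, 2 nM Eu-GST antibody and 10 nM kinase tracer 178. Compound dilution series ran 1 μM–0.0001 μM, incubated 60 min at room temperature with stirring. Fluorescence was read ([…]), and IC50 came from percent inhibition versus control.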

Molecule `Cc1cccc(-n2nc(C(=O)Nc3ccc(Br)cc3)cc2-c2ccc3nccnc3c2)n1` [Example 191, N-(4-bromophenyl)-1-(6-methylpyridin-2-yl)-5-(quinoxalin-6-yl)-1H-pyrazole-3-carboxyamide] returned a 50% inhibitory concentration (IC50) of 10 to 100 nM.
To `COc1ccc(NC(=O)c2cc(-c3ccc4nccnc4c3)n(-c3cccc(C)n3)n2)cn1` [Example 192, N-(6-methoxypyridin-3-yl)-1-(6-methylpyridin-2-yl)-5-(quinoxalin-6-yl)-1H-pyrazole-3-carboxyamide] belongs 10 to 100 nM.
To `COc1ccc(CNC(=O)c2cc(-c3ccc4nccnc4c3)n(-c3cccc(C)n3)n2)cc1` [Example 193, N-(4-methoxybenzyl)-1-(6-methylpyridin-2-yl)-5-(quinoxalin-6-yl)-1H-pyrazole-3-carboxyamide] belongs about 100 nM; to `Cc1cccc(-n2nc(C(=O)NCc3ccc(C#N)cc3)cc2-c2ccc3nccnc3c2)n1` [Example 194, N-(4-cyanobenzyl)-1-(6-methylpyridin-2-yl)-5-(quinoxalin-6-yl)-1H-pyrazole-3-carboxyamide], over 100 nM.
To `CC(=O)c1cccc(CNC(=O)c2cc(-c3ccc4nccnc4c3)n(-c3cccc(C)n3)n2)c1` [Example 195, N-(3-acetylbenzyl)-1-(6-methylpyridin-2-yl)-5-(quinoxalin-6-yl)-1H-pyrazole-3-carboxyamide] belongs 10 to 100 nM.
As for `Cc1cccc(-n2nc(C(=O)NCc3cccc(F)c3)cc2-c2ccc3nccnc3c2)n1` [Example 197, N-(3-fluorobenzyl)-1-(6-methylpyridin-2-yl)-5-(quinoxalin-6-yl)-1H-pyrazole-3-carboxyamide], the IC50 lay in the range of 10 to 100 nM.
As for `Cc1cccc(-n2nc(C(=O)NCc3ccccc3F)cc2-c2ccc3nccnc3c2)n1` [Example 198, N-(2-fluorobenzyl)-1-(6-methylpyridin-2-yl)-5-(quinoxalin-6-yl)-1H-pyrazole-3-carboxyamide], the IC50 is under 100 nM.
To `Cc1cccc(-n2nc(C(=O)NCc3ccc(Cl)cc3)cc2-c2ccc3nccnc3c2)n1` [Example 199, N-(4-chlorobenzyl)-1-(6-methylpyridin-2-yl)-5-(quinoxalin-6-yl)-1H-pyrazole-3-carboxyamide] belongs over 100 nM; to `Cc1cccc(-n2nc(C(=O)NCc3cccc(Cl)c3)cc2-c2ccc3nccnc3c2)n1` [Example 200, N-(3-chlorobenzyl)-1-(6-methylpyridin-2-yl)-5-(quinoxalin-6-yl)-1H-pyrazole-3-carboxyamide], 10 to 100 nM.
Take `Cc1cccc(-n2nc(C(=O)NCc3ccccc3Cl)cc2-c2ccc3nccnc3c2)n1` [Example 201, N-(2-chlorobenzyl)-1-(6-methylpyridin-2-yl)-5-(quinoxalin-6-yl)-1H-pyrazole-3-carboxyamide]: the 50% inhibitory concentration (IC50) was 10 to 100 nM.
The figure for `Cc1cccc(-n2nc(C(=O)Nc3ccccc3F)cc2-c2ccc3nccnc3c2)c1` [Example 202, N-(2-fluorophenyl)-5-(quinoxalin-6-yl)-1-(m-tolyl)-1H-pyrazole-3-carboxyamide] is over 1000 nM; for `COc1ccc(NC(=O)c2cc(-c3ccc4nccnc4c3)n(-c3cc(Cl)ccc3F)n2)cc1` [Example 203, 1-(5-chloro-2-fluorophenyl)-N-(4-methoxyphenyl)-5-(quinoxalin-6-yl)-1H-pyrazole-3-carboxyamide] it is over 100 nM.
On to `CN(C)c1ccc(NC(=O)c2cc(-c3ccc4nccnc4c3)n(-c3cc(Cl)ccc3F)n2)cc1` [Example 204, 1-(5-chloro-2-fluorophenyl)-N-(4-(dimethylamino)phenyl)-5-(quinoxalin-6-yl)-1H-pyrazole-3-carboxyamide], for which the half-inhibitory concentration (IC50) was about 100 nM.
Molecule `COc1ccc(NC(=O)c2cc(-c3ccc4nccnc4c3)n(-c3cccc(C(F)(F)F)n3)n2)cc1` [Example 205] displayed a half-maximal inhibitory concentration (IC50) of over 100 nM.
To `CN(C)c1ccc(NC(=O)c2cc(-c3ccc4nccnc4c3)n(-c3cccc(C(F)(F)F)n3)n2)cc1` [Example 206] belongs over 100 nM.
Molecule `COc1ccc(NC(=O)c2cc(-c3ccc4nccnc4c3)n(-c3cccc(Br)n3)n2)cc1` [Example 207, 1-(6-bromopyridin-2-yl)-N-(4-methoxyphenyl)-5-(quinoxalin-6-yl)-1H-pyrazole-3-carboxyamide] showed a half-maximal inhibitory concentration (IC50) of 10 to 100 nM.
To `CN(C)c1ccc(NC(=O)c2cc(-c3ccc4nccnc4c3)n(-c3cccc(Br)n3)n2)cc1` [Example 208, 1-(6-bromopyridin-2-yl)-N-(4-(dimethylamino)phenyl)-5-(quinoxalin-6-yl)-1H-pyrazole-3-carboxyamide] belongs 10 to 100 nM; to `Cc1cccc(-n2nc(C(=O)Nc3ccccc3F)cc2-c2ccnc3ccccc23)n1` [Example 209, N-(2-fluorophenyl)-1-(6-methylpyridin-2-yl)-5-(quinolin-4-yl)-1H-pyrazole-3-carboxyamide], over 100 nM.
To `COc1ccc(NC(=O)c2cc(-c3ccnc4ccccc34)n(-c3cccc(C)n3)n2)cc1` [Example 210, N-(4-methoxyphenyl)-1-(6-methylpyridin-2-yl)-5-(quinolin-4-yl)-1H-pyrazole-3-carboxyamide] belongs 10 to 100 nM; to `Cc1cccc(-n2nc(C(=O)Nc3ccc(S(C)(=O)=O)cc3)cc2-c2ccnc3ccccc23)n1` [Example 211, 1-(6-methylpyridin-2-yl)-N-(4-(methylsulfonyl)phenyl)-5-(quinolin-4-yl)-1H-pyrazole-3-carboxyamide], under 10 nM.
In the case of `COc1ccc(NC(=O)c2cc(-c3ccnc4ccccc34)n(-c3cccc(C)n3)n2)cn1` [Example 212, N-(6-methoxypyridin-3-yl)-1-(6-methylpyridin-2-yl)-5-(quinolin-4-yl)-1H-pyrazole-3-carboxyamide], the IC50 was 36 nM.
To `Cc1cccc(-n2nc(C(=O)Nc3ccc(Cl)nc3)cc2-c2ccnc3ccccc23)n1` [Example 213, N-(6-chloropyridin-3-yl)-1-(6-methylpyridin-2-yl)-5-(quinolin-4-yl)-1H-pyrazole-3-carboxyamide] belongs 23 nM; to `Cc1cccc(-n2nc(C(=O)Nc3ccc4c(c3)OCO4)cc2-c2ccnc3ccccc23)n1` [Example 214, N-(benzo[d][1,3]dioxol-5-yl)-1-(6-methylpyridin-2-yl)-5-(quinolin-4-yl)-1H-pyrazole-3-carboxyamide], 30 nM.
The figure for `COc1ccc(NC(=O)c2cc(-c3ccnc4ccccc34)n(-c3cccc(C)n3)n2)cc1F` [Example 215, N-(3-fluoro-4-methoxyphenyl)-1-(6-methylpyridin-2-yl)-5-(quinolin-4-yl)-1H-pyrazole-3-carboxyamide] is 91 nM; for `COc1ccc(NC(=O)c2cc(-c3ccnc4ccccc34)n(-c3cccc(C)n3)n2)c(F)c1` [Example 216, N-(2-fluoro-4-methoxyphenyl)-1-(6-methylpyridin-2-yl)-5-(quinolin-4-yl)-1H-pyrazole-3-carboxyamide] it is about 100 nM.
The figure for `COCCOc1ccc(NC(=O)c2cc(-c3ccnc4ccccc34)n(-c3cccc(C)n3)n2)cc1` [Example 217, N-(4-(2-methoxyethoxy)phenyl)-1-(6-methylpyridin-2-yl)-5-(quinolin-4-yl)-1H-pyrazole-3-carboxyamide] is 18 nM.
